Data from article PMC6429214, “Design, Synthesis and Biological Evaluation of Isoxazole-Based CK1 Inhibitors Modified with Chiral Pyrrolidine Scaffolds” (Molecules, 2019).

Assays:
Test in all cases: 33PanQinase panel
Format in all cases: biochemical
ASK1 = biological target: T1, ASK1 (Homo sapiens, UniProt Q99683); details: ASK1, 1 µM; read-out: Residual Activity (%)
T1 construct: purchased ProQinase
Description: (§1) Figure 5 Dendrogram representation of the selectivity profile of 29d at a concentration of 1 μM in a panel of 320 wild-type kinases (ProQinase, Freiburg, Germany). The residual kinase activity was determined compared to DMSO control. Images were generated using TREEspot Software Tool, DISCOVERX CORPORATION 2010.
(§2) Figure S1. X-ray crystal structure of intermediate compound 25d (ORTEP drawing with ellipsoids at 30% probability). CCDC 1589043 contains the supplementary crystallographic data for this paper. The data can be obtained free of charge from The Cambridge Crystallographic Data Centre via www.ccdc.cam.ac.uk/structures.
(§3) Table S1 Data collection, structure refinement and Ramachrandran plot results of protein crystallization of CK1δ in complex with compound 30a and 30b, respectively.
(§4) Root-mean-square deviations
(§5) Additionally allowed 2.6 2.2
(§6) Table S2. Selectivity profile of compound 29d. The inhibitor has been screened at a concentration of 1 µM over a panel of 320 wild-type protein kinases by ProQinase GmbH (Freiburg, Germany) using an activity-based radiometric 33PanQinase® assay. Results are presented as percentage of residual kinase activity relative to […]
(§7) control. The final DMSO concentration was 1 % in each reaction-mix. Classification of protein kinase families refers to Manning et al. (Manning, G.; Whyte, D. B.; Martinez, R.; Hunter, T.; Sudarsanam, S. The Protein Kinase Complement of the Human Genome. Science 2002, 298, 1912–1934): AGC = containing PKA, PKG, PKC families; […] = containing Cdk, MAPK, GSK3, CLK families; STE = homologs of yeast sterile 7, sterile 11, sterile 20 kinases; TK = tyrosine kinase; TKL = tyrosine kinase-like.
(§8) Kinase name Kinase family Residual Activity (%)

EPHB3 = biological target: T2, EPHB3 (Homo sapiens, UniProt P54753); details: EPHB3, 1 µM; read-out: Residual Activity (%)
T2 construct: purchased ProQinase
T2 sequence (P54753 34-998): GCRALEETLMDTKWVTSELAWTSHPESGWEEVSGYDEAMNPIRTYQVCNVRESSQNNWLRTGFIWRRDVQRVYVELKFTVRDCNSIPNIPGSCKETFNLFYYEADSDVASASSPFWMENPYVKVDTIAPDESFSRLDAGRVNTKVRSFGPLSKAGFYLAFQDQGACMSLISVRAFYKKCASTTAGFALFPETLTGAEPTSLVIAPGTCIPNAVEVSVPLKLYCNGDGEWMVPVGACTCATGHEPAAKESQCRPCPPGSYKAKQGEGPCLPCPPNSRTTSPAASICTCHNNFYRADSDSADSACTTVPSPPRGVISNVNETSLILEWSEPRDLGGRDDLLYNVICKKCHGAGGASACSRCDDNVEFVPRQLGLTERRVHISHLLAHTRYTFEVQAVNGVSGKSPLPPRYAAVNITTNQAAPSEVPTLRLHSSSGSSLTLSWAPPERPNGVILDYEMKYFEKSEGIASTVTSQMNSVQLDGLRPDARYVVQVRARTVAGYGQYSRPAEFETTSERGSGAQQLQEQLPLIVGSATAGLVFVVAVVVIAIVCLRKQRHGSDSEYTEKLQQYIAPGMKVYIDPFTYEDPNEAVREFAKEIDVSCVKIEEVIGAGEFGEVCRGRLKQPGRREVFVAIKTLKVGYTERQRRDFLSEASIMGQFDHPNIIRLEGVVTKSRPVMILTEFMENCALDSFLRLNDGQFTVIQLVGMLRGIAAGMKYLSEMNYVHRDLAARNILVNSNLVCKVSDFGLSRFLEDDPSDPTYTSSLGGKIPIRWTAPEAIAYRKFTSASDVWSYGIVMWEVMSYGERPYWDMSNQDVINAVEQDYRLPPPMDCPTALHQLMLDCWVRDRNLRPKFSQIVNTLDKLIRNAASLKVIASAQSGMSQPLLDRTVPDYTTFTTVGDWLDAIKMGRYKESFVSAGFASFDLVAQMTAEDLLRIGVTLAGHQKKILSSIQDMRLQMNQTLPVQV
Description: as §1, §2, §3, §4, §5, §6, §7, §8

ROCK2 = biological target: T3, ROCK2 (Homo sapiens, UniProt O75116); details: ROCK2, 1 µM; read-out: Residual Activity (%)
T3 construct: purchased ProQinase
Description: as §1, §2, §3, §4, §5, §6, §7, §8

ACV-R1 = biological target: T4, ACV-R1 (Homo sapiens, UniProt Q04771); details: ACV-R1, 1 µM; read-out: Residual Activity (%)
T4 construct: purchased ProQinase
Description: as §1, §2, §3, §4, §5, §6, §7, §8

GRK3 = biological target: T5, GRK3 (Homo sapiens, UniProt P35626); details: GRK3, 1 µM; read-out: Residual Activity (%)
T5 construct: purchased ProQinase
Description: as §1, §2, §3, §4, §5, §6, §7, §8

INSR-R = biological target: T6, INSR-R (Homo sapiens, UniProt P14616); details: read-out: Residual Activity (%)
T6 construct: purchased ProQinase
Description: as §1, §2, §3, §4, §5, §6, §7, §8

BUB1B = biological target: T7, BUB1B (Homo sapiens, UniProt O60566); details: read-out: Residual Activity (%)
T7 construct: purchased ProQinase
T7 sequence (O60566 whole entry): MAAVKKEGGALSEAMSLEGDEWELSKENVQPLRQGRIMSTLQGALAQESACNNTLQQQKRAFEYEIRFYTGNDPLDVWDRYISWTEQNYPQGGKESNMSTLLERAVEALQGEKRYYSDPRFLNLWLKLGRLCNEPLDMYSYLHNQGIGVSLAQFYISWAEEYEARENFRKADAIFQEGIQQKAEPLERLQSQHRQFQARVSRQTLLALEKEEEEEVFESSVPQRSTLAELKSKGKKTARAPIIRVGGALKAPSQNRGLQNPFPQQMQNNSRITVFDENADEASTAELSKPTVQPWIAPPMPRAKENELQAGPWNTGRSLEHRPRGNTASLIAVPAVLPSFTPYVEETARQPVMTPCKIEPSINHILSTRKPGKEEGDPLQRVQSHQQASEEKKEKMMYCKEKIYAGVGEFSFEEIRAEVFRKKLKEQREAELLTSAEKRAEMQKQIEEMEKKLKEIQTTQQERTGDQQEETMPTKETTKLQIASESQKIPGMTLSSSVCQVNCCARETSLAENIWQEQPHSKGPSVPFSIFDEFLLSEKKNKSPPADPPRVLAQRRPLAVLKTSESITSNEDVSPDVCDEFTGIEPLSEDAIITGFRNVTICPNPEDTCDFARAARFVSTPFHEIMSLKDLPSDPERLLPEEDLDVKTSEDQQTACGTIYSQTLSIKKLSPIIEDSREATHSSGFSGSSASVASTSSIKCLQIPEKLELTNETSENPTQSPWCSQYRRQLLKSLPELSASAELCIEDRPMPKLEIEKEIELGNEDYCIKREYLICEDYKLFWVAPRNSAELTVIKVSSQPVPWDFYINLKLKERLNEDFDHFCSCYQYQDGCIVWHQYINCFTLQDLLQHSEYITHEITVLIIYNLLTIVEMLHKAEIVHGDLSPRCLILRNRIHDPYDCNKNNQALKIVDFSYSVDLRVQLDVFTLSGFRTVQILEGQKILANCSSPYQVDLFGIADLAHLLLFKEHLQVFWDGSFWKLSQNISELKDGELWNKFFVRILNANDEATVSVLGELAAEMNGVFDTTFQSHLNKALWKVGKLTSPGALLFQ
Description: as §1, §2, §3, §4, §5, §6, §7, §8

MYLK = biological target: T8, MYLK (Homo sapiens, UniProt Q15746); details: read-out: Residual Activity (%)
T8 construct: purchased ProQinase
Description: as §1, §2, §3, §4, §5, §6, §7, §8

SIK2 = biological target: T9, SIK2 (Homo sapiens, UniProt Q9H0K1); details: SIK2, 1 µM; read-out: Residual Activity (%)
T9 construct: purchased ProQinase
Description: as §1, §2, §3, §4, §5, §6, §7, §8

CDK3/CycE1 = biological target: T10, CDK3/CycE1 (Homo sapiens, UniProt Q00526); details: CDK3/CycE1, 1 µM; read-out: Residual Activity (%)
T10 construct: purchased ProQinase
T10 sequence (Q00526 whole entry): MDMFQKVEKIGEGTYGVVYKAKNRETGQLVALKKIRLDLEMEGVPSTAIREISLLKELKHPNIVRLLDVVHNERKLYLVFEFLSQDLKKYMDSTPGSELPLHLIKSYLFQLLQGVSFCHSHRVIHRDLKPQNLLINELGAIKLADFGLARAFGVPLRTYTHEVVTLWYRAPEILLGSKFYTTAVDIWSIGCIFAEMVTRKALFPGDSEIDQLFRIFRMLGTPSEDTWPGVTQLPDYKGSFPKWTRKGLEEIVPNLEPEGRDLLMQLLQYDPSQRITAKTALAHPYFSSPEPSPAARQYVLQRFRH
T10 sequence (P24864 whole entry partner): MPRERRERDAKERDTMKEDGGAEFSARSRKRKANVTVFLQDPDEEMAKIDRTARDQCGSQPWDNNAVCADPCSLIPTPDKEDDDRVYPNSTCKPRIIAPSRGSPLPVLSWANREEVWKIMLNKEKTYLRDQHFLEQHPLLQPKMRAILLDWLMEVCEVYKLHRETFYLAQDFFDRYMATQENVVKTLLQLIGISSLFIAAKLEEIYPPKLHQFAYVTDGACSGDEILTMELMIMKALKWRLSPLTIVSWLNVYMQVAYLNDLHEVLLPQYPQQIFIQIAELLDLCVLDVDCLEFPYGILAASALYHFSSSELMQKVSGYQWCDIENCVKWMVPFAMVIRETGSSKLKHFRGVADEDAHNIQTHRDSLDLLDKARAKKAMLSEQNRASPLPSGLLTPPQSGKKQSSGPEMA
Description: as §1, §2, §3, §4, §5, §6, §7, §8

NIK = biological target: T11, NIK (Homo sapiens, UniProt Q99558); details: read-out: Residual Activity (%)
T11 construct: purchased ProQinase
Description: as §1, §2, §3, §4, §5, §6, §7, §8

TRK-A = biological target: T12, TRK-A (Homo sapiens, UniProt P04629); details: read-out: Residual Activity (%)
T12 construct: purchased ProQinase
Description: as §1, §2, §3, §4, §5, §6, §7, §8

ERBB4 = biological target: T13, ERBB4 (Homo sapiens, UniProt Q15303); details: ERBB4, 1 µM; read-out: Residual Activity (%)
T13 construct: purchased ProQinase
Description: as §1, §2, §3, §4, §5, §6, §7, §8

MINK1 = biological target: T14, MINK1 (Homo sapiens, UniProt Q8N4C8); details: MINK1, 1 µM; read-out: Residual Activity (%)
T14 construct: purchased ProQinase
T14 sequence (Q8N4C8 whole entry): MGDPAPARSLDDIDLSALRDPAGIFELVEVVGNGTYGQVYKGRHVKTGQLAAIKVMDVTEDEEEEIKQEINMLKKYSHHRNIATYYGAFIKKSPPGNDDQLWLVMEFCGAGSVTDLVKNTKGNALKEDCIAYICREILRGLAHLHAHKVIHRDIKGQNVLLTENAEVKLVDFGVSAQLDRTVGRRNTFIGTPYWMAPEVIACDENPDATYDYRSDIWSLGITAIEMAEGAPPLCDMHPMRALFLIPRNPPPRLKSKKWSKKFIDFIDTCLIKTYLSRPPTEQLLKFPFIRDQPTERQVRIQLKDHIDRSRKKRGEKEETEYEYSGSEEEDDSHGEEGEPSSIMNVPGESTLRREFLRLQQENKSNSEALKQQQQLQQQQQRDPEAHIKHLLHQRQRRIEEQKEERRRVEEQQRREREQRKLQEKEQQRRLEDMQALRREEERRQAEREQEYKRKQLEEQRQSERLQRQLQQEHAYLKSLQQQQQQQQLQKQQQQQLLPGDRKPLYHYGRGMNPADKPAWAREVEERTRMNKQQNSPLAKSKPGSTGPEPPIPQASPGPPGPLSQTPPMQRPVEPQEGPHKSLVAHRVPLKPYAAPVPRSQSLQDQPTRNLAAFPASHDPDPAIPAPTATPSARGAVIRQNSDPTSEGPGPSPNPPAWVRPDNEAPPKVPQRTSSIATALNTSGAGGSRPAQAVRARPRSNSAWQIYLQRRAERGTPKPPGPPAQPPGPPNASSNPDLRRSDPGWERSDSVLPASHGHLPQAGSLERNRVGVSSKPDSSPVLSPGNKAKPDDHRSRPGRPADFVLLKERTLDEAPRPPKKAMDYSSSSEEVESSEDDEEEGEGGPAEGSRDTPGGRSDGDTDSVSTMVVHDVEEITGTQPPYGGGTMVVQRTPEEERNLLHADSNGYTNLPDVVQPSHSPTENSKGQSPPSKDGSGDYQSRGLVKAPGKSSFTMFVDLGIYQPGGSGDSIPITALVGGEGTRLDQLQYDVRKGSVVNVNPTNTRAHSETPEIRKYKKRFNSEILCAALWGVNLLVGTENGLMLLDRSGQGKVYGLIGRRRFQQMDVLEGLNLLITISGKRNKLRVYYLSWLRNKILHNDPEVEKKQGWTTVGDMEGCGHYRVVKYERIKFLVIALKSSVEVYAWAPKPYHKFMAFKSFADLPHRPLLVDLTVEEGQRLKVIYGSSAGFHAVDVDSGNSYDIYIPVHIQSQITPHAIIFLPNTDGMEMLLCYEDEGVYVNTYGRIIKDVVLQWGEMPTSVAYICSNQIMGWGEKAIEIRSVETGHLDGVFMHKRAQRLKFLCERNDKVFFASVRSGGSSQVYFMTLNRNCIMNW
Description: as §1, §2, §3, §4, §5, §6, §7, §8

PKC-beta2 = biological target: T15, PKC-beta2 (Homo sapiens, UniProt P05771); details: PKC-beta2, 1 µM; read-out: Residual Activity (%)
T15 construct: purchased ProQinase
Description: as §1, §2, §3, §4, §5, §6, §7, §8

MKK4 = biological target: T16, MKK4 (Homo sapiens, UniProt P45985); details: MKK4, 1 µM; read-out: Residual Activity (%)
T16 construct: purchased ProQinase
T16 sequence (P45985 whole entry): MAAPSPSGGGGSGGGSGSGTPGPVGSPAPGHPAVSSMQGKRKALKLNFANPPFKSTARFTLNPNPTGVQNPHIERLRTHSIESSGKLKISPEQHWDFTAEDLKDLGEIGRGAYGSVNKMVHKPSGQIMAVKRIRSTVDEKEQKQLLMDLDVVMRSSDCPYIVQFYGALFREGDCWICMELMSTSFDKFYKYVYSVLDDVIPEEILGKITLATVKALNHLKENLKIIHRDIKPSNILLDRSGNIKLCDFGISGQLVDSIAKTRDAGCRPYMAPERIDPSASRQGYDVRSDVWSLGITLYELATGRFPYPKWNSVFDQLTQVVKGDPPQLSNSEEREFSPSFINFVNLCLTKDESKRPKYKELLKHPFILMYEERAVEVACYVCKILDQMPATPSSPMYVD
Description: as §1, §2, §3, §4, §5, §6, §7, §8

PKC-nu = biological target: T17, PKC-nu (Homo sapiens, UniProt O94806); details: read-out: Residual Activity (%)
T17 construct: purchased ProQinase
Description: as §1, §2, §3, §4, §5, §6, §7, §8

FGF-R2 = biological target: T18, FGF-R2 (Homo sapiens, UniProt P21802); details: FGF-R2, 1 µM; read-out: Residual Activity (%)
T18 construct: purchased ProQinase
Description: as §1, §2, §3, §4, §5, §6, §7, §8

PKC-alpha = biological target: T19, PKC-alpha (Homo sapiens, UniProt P17252); details: read-out: Residual Activity (%)
T19 construct: purchased ProQinase
Description: as §1, §2, §3, §4, §5, §6, §7, §8

PRKG2 = biological target: T20, PRKG2 (Homo sapiens, UniProt Q13237); details: PRKG2, 1 µM; read-out: Residual Activity (%)
T20 construct: purchased ProQinase
Description: as §1, §2, §3, §4, §5, §6, §7, §8

TLK2 = biological target: T21, TLK2 (Homo sapiens, UniProt Q86UE8); details: TLK2, 1 µM; read-out: Residual Activity (%)
T21 construct: purchased ProQinase
Description: as §1, §2, §3, §4, §5, §6, §7, §8

MAP4K5 = biological target: T22, MAP4K5 (Homo sapiens, UniProt Q9Y4K4); details: MAP4K5, 1 µM; read-out: Residual Activity (%)
T22 construct: purchased ProQinase
Description: as §1, §2, §3, §4, §5, §6, §7, §8

MELK = biological target: T23, MELK (Homo sapiens, UniProt Q14680); details: read-out: Residual Activity (%)
T23 construct: purchased ProQinase
Description: as §1, §2, §3, §4, §5, §6, §7, §8

SRC (GST-HIS-tag) = biological target: T24, SRC (GST-HIS-tag) (Homo sapiens, UniProt P12931); details: read-out: Residual Activity (%)
T24 construct: purchased ProQinase
Description: as §1, §2, §3, §4, §5, §6, §7, §8

CDK3/CycC = biological target: T25, CDK3/CycC (Homo sapiens, UniProt Q00526); details: read-out: Residual Activity (%)
T25 construct: purchased ProQinase
T25 sequence (Q00526 whole entry): as the sequence (Q00526 whole entry) above
T25 sequence (P24863 whole entry partner): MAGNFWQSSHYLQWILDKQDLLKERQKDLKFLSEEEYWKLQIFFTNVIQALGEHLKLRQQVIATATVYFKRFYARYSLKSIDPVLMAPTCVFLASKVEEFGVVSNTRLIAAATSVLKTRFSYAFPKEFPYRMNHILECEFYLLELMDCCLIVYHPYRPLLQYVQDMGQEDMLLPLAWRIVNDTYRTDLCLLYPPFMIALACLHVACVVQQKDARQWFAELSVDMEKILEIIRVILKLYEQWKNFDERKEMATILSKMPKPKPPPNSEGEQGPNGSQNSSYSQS
Description: as §1, §2, §3, §4, §5, §6, §7, §8

EPHB2 = biological target: T26, EPHB2 (Homo sapiens, UniProt P29323); details: EPHB2, 1 µM; read-out: Residual Activity (%)
T26 construct: purchased ProQinase
Description: as §1, §2, §3, §4, §5, §6, §7, §8

GRK5 = biological target: T27, GRK5 (Homo sapiens, UniProt P34947); details: GRK5, 1 µM; read-out: Residual Activity (%)
T27 construct: purchased ProQinase
Description: as §1, §2, §3, §4, §5, §6, §7, §8

LYN = biological target: T28, LYN (Homo sapiens, UniProt P07948); details: read-out: Residual Activity (%)
T28 construct: purchased ProQinase
Description: as §1, §2, §3, §4, §5, §6, §7, §8

With `COc1ccc(-c2cc(C(=O)Nc3cc(-c4c(-c5ccc(F)cc5)noc4C(C)C)ccn3)n(CC3NCC(O)C3O)c2)cc1` (stereo not shown) [29d] the remaining activity at 1 µM (ASK1) was 107%, the remaining activity at 1 µM (EPHB3) was 138% and the remaining activity at 1 µM (ROCK2) was 92%. The remaining activity at 1 µM (ACV-R1) was 105%, the remaining activity at 1 µM (GRK3) was 109% and the remaining activity at 1 µM (INSR-R) was 89%. The remaining activity at 1 µM (BUB1B) was 90%, the remaining activity at 1 µM (MYLK) was 106% and the remaining activity at 1 µM (SIK2) was 98%. For the same molecule, the remaining activity at 1 µM (CDK3/CycE1) was 103%, the remaining activity at 1 µM (NIK) was 98% and the remaining activity at 1 µM (TRK-A) was 116%. The remaining activity at 1 µM (ERBB4) was 103%, the remaining activity at 1 µM (MINK1) was 82% and the remaining activity at 1 µM (PKC-beta2) was 118%. The remaining activity at 1 µM (MKK4) was 109%, the remaining activity at 1 µM (PKC-nu) was 90% and the remaining activity at 1 µM (FGF-R2) was 94%. For the same molecule, the remaining activity at 1 µM (PKC-alpha) was 107%, the remaining activity at 1 µM (PRKG2) was 100% and the remaining activity at 1 µM (TLK2) was 108%. For the same molecule, the remaining activity at 1 µM (MAP4K5) was 96%, the remaining activity at 1 µM (MELK) was 107% and the remaining activity at 1 µM (SRC (GST-HIS-tag)) was 125%. It also gave a remaining activity at 1 µM (CDK3/CycC) of 100%, a remaining activity at 1 µM (EPHB2) of 88% and a remaining activity at 1 µM (GRK5) of 97%. It also gave a remaining activity at 1 µM (LYN) of 122%.
